# Results from ChEMBL document CHEMBL1141989, “Amino acid conjugates as kappa opioid receptor agonists” (Bioorg Med Chem Lett, 2005).
# “And” between values parts separate entries of the source, which are not always exact repeats. Identical values can stand only once.
# Assays:
# [1] = biological target: T1, Kappa-type opioid receptor (Homo sapiens, UniProt P41145); assay: In vitro binding affinity for human kappa opioid receptor was determined by using [3H]diprenorphine as radioligand
# [2] = biological target: T1, Kappa-type opioid receptor; assay: In vitro effective concentration towards human kappa opioid receptor was determined using [35S]-GTP-gamma S as radioligand; Not determined; type: functional
# [3] = biological target: Opioid receptors; mu & kappa (Homo sapiens) (UniProt P41145+P35372); assay: Selectivity of binding affinity of human kappa opioid receptor over human mu opioid receptor; type: protein assay
# Opioid receptors; mu & kappa (Homo sapiens), sequence (P35372 whole entry, looked up): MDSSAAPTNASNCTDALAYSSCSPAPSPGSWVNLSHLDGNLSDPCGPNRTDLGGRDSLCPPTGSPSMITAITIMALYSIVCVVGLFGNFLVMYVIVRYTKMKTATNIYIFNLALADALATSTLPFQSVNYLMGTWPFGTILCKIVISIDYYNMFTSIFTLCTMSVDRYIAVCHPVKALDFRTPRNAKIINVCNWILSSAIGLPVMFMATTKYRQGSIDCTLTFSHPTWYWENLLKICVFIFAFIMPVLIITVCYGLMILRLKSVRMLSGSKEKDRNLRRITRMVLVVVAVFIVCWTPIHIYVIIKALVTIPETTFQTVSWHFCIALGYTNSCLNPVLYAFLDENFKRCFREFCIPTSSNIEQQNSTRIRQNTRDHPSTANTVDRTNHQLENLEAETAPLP
# Opioid receptors; mu & kappa (Homo sapiens), sequence (P41145 whole entry, looked up): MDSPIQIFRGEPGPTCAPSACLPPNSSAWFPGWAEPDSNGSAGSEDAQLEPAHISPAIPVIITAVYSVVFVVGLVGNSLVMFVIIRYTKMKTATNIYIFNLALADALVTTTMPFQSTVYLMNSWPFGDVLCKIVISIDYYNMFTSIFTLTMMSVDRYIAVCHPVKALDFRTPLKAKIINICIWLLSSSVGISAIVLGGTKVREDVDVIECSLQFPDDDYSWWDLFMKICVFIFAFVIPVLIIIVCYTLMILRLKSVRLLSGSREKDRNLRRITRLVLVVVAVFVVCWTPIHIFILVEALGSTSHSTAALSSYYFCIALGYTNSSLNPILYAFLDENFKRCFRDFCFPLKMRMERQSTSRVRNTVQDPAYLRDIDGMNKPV
# T1 sequence (P41145 whole entry): as the sequence (P41145 whole entry, looked up) above
SMILES,Ki [1] [nM],EC50 [2] [nM],Selectivity [3]
CN(CC(=O)N(C)[C@H](CN1CC[C@@H](O)C1)c1ccccc1)C(=O)c1ccc(Cl)c(Cl)c1,20,41.4,
COC(=O)N[C@H](C(=O)N(C)[C@H](CN1CCCC1)c1ccccc1)c1ccccc1,178,,> 100
CN(C(=O)CNC(=O)c1ccccc1)[C@H](CN1CCCC1)c1ccccc1,6.7,3.85,61 and 50
CN(C(=O)CNC(=O)Cc1ccccc1)[C@H](CN1CCCC1)c1ccccc1,16.3,,> 100 and 49
CN(C(=O)CNC(=O)c1ccc2c(c1)no[n+]2[O-])[C@H](CN1CCCC1)c1ccccc1,4.6,4.37,
CN(C(=O)[C@@H](NC(=O)c1ccccc1)c1ccccc1)[C@H](CN1CCCC1)c1ccccc1,99,,
CN(C(=O)CNC(=O)c1ccc(Cl)c(Cl)c1)[C@H](CN1CCCC1)c1ccccc1,3.6,2.25,34 and 24
CN(C(=O)[C@H](NC(=O)OCc1ccccc1)c1ccccc1)[C@H](CN1CCCC1)c1ccccc1,856,,
CN(C(=O)[C@H](Cc1ccccc1)NC(=O)OCc1ccccc1)[C@H](CN1CCCC1)c1ccccc1,150,,13 and 5
CN(C(=O)CNC(=O)OCc1ccccc1)[C@H](CN1CCCC1)c1ccccc1,84,,
CN(C(=O)[C@@H](NC(=O)OCc1ccccc1)c1ccccc1)[C@H](CN1CCCC1)c1ccccc1,138,,22 and 27
CN(C(=O)CNC(=O)c1ccc(Cl)c(Cl)c1)[C@H](CN1CC[C@@H](O)C1)c1ccccc1,0.83,0.76,
CN(C(=O)C(NC=O)c1ccccc1)[C@H](CN1CCCC1)c1ccccc1 (mixture of isomers),258,,146 and > 100
COc1ccccc1C(=O)NCC(=O)N(C)[C@H](CN1CC[C@@H](O)C1)c1ccccc1,2,1.98,
COc1ccc(C(=O)NCC(=O)N(C)[C@H](CN2CC[C@@H](O)C2)c2ccccc2)cc1,48,,39 and > 100
